Where “and” joins values, the source holds several entries; their conditions need not be identical. Identical values can stand only once. Inconclusive results and toxic doses are left out.
Tested on: L1210 leukemia ip in BDF1 mice, survival T/C
Assay: NCI In Vivo Anticancer Drug Screen. Data for tumor model L1210 Leukemia (intraperitoneal) in B6D2F1 (BDF1) mice
Details: endpoint: mean survival time, higher = longer survival
Outline: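 Ratio derived from survival: compound-dosed mice over vehicle-dosed mice, all bearing a transplantable tumor.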

[1] = dose: 100.0 mg/kg/injection, schedule: Q04DX002 (ip), vehicle: Klucel (hydroxypropylcellulose) (HPC)
[2] = dose: 100.0 mg/kg/injection, schedule: Q01DX001 (ip), vehicle: saline
[3] = dose: 200.0 mg/kg/injection, schedule: Q01DX001 (ip), vehicle: saline
[4] = dose: 400.0 mg/kg/injection, schedule: Q01DX001 (ip), vehicle: saline

**Q.** Which results are given for `N=c1c2c(C(N)=O)cn(C3OC(CO)C(O)C3O)c2ncn1O` (configuration not stated)?
**A.** T/C (dose: 2.5 mg/kg/injection, schedule: Q01DX001 (ip), vehicle: saline with Tween-80): 122 % of control; T/C (dose: 5.0 mg/kg/injection, schedule: Q01DX001 (ip), vehicle: saline with Tween-80): 117 % of control; T/C (dose: 10.0 mg/kg/injection, schedule: Q01DX001 (ip), vehicle: saline with Tween-80): 123 % of control; T/C (dose: 10.0 mg/kg/injection, schedule: Q01DX001 (ip), vehicle: saline): 153 % of control; T/C (dose: 20.0 mg/kg/injection, schedule: Q01DX001 (ip), vehicle: saline): 180 % of control

**Q.** With `O=C(Nc1ccc(C2=NCCN2)cc1)c1cc(C(=O)Nc2ccc(C3=NCCN3)cc2)cc(C(=O)Nc2ccc(C3=NCCN3)cc2)c1` as the compound, how does the T/C (dose: 4.3 mg/kg/injection, schedule: Q01DX Z (ip), vehicle: saline) read?
**A.** 95 % of control

**Q.** What about the T/C (dose: 6.4 mg/kg/injection, schedule: Q01DX Z (ip), vehicle: saline) of the same compound?
**A.** 93 % of control

**Q.** What about the T/C (dose: 9.7 mg/kg/injection, schedule: Q01DX Z (ip), vehicle: saline) of the same compound?
**A.** 97 % of control and 92 % of control

**Q.** What about the T/C (dose: 15.0 mg/kg/injection, schedule: Q01DX Z (ip), vehicle: saline) of the same compound?
**A.** 92 % of control

**Q.** What about the T/C (dose: 22.0 mg/kg/injection, schedule: Q01DX Z (ip), vehicle: saline) of the same compound?
**A.** 88 % of control

**Q.** What about the T/C (dose: 33.0 mg/kg/injection, schedule: Q01DX Z (ip), vehicle: saline) of the same compound?
**A.** 97 % of control

**Q.** What about the T/C (dose: 111.0 mg/kg/injection, schedule: Q01DX Z (ip), vehicle: saline) of the same compound?
**A.** 93 % of control

**Q.** And the T/C (dose: 166.0 mg/kg/injection, schedule: Q01DX Z (ip), vehicle: saline)?
**A.** 90 % of control

**Q.** And the T/C (dose: 250.0 mg/kg/injection, schedule: Q01DX Z (ip), vehicle: saline)?
**A.** 87 % of control

**Q.** What about the T/C (dose: 375.0 mg/kg/injection, schedule: Q01DX Z (ip), vehicle: saline) of the same compound?
**A.** 88 % of control

**Q.** `COc1ccc(OC)c(-c2csc(=O)s2)c1` was tested. Which T/C (dose: 50.0 mg/kg/injection, schedule: Q04DX002 (ip), vehicle: Klucel (hydroxypropylcellulose) (HPC)) did it give?
**A.** 97 % of control

**Q.** And the T/C [1]?
**A.** 111 % of control

**Q.** How did the T/C (dose: 100.0 mg/kg/injection, schedule: Q04DX003 (ip), vehicle: other) turn out when `C/C(=N/NC(=O)c1ccccc1)c1ccc(Cl)cc1Cl` was run?
**A.** 97 % of control

**Q.** What about the T/C (dose: 200.0 mg/kg/injection, schedule: Q04DX003 (ip), vehicle: other) of the same compound?
**A.** 108 % of control

**Q.** `O=C(NCCCOc1ccc([N+](=O)[O-])cc1Cl)Nc1ccc(S(=O)(=O)F)cc1` was tested. Which T/C (dose: 75.0 mg/kg/injection, schedule: Q01DX001 (ip), vehicle: carboxymethylcellulose (CMC)) did it give?
**A.** 98 % of control

**Q.** And the T/C (dose: 100.0 mg/kg/injection, schedule: Q04DX003 (ip), vehicle: saline)?
**A.** 103 % of control

**Q.** And the T/C (dose: 150.0 mg/kg/injection, schedule: Q01DX001 (ip), vehicle: carboxymethylcellulose (CMC))?
**A.** 89 % of control

**Q.** And the T/C (dose: 200.0 mg/kg/injection, schedule: Q04DX003 (ip), vehicle: saline)?
**A.** 103 % of control

**Q.** What about the T/C (dose: 300.0 mg/kg/injection, schedule: Q01DX001 (ip), vehicle: carboxymethylcellulose (CMC)) of the same compound?
**A.** 87 % of control

**Q.** What about the T/C (dose: 400.0 mg/kg/injection, schedule: Q04DX003 (ip), vehicle: saline) of the same compound?
**A.** 105 % of control

**Q.** How did the T/C (dose: 50.0 mg/kg/injection, schedule: Q01DX001 (ip), vehicle: saline) turn out when `Cn1c(=O)c2[nH]c(-c3ccc([N+](=O)[O-])cc3)nc2n(C)c1=O` was run?
**A.** 98 % of control

**Q.** What about the T/C [2] of the same compound?
**A.** 93 % of control

**Q.** And the T/C [3]?
**A.** 96 % of control

**Q.** What about the T/C [4] of the same compound?
**A.** 93 % of control

**Q.** For `C1=C2NNC(c3ccccc3)=C(c3ccccc3)C2=CCC1` (tested in a mixture with another compound), which T/C (dose: 50.0 mg/kg/injection, schedule: Q01DX009 (ip), vehicle: Klucel (hydroxypropylcellulose) (HPC)) is on record?
**A.** 94 % of control

**Q.** What about the T/C (dose: 100.0 mg/kg/injection, schedule: Q01DX009 (ip), vehicle: Klucel (hydroxypropylcellulose) (HPC)) of the same compound?
**A.** 90 % of control

**Q.** What about the T/C (dose: 200.0 mg/kg/injection, schedule: Q01DX009 (ip), vehicle: Klucel (hydroxypropylcellulose) (HPC)) of the same compound?
**A.** 90 % of control

**Q.** With `CCCCCCCCCCCCC(=O)N1CCCC1` as the compound, how does the T/C (dose: 100.0 mg/kg/injection, schedule: Q04DX002 (ip), vehicle: saline) read?
**A.** 104 % of control

**Q.** And the T/C (dose: 200.0 mg/kg/injection, schedule: Q04DX002 (ip), vehicle: saline)?
**A.** 104 % of control

**Q.** And the T/C (dose: 400.0 mg/kg/injection, schedule: Q04DX002 (ip), vehicle: saline)?
**A.** 96 % of control

**Q.** For `N#CCC1=CC(=O)C(=O)c2ccccc21`, which T/C [2] is on record?
**A.** 102 % of control

**Q.** And the T/C [3]?
**A.** 102 % of control

**Q.** What about the T/C [4] of the same compound?
**A.** 100 % of control

**Q.** How did the T/C (dose: 100.0 mg/kg/injection, schedule: Q01DX001 (ip), vehicle: Klucel (hydroxypropylcellulose) (HPC)) turn out when `O=[N+]([O-])c1cccc(/C=C/S(=O)(=O)c2ccccc2)c1` was run?
**A.** 107 % of control

**Q.** What about the T/C (dose: 100.0 mg/kg/injection, schedule: Q04DX003 (ip), vehicle: Klucel (hydroxypropylcellulose) (HPC)) of the same compound?
**A.** 103 % of control

**Q.** And the T/C (dose: 200.0 mg/kg/injection, schedule: Q01DX001 (ip), vehicle: Klucel (hydroxypropylcellulose) (HPC))?
**A.** 95 % of control

**Q.** And the T/C (dose: 200.0 mg/kg/injection, schedule: Q04DX003 (ip), vehicle: Klucel (hydroxypropylcellulose) (HPC))?
**A.** 103 % of control

**Q.** And the T/C (dose: 400.0 mg/kg/injection, schedule: Q01DX001 (ip), vehicle: Klucel (hydroxypropylcellulose) (HPC))?
**A.** 104 % of control

**Q.** And the T/C (dose: 400.0 mg/kg/injection, schedule: Q04DX003 (ip), vehicle: Klucel (hydroxypropylcellulose) (HPC))?
**A.** 100 % of control

**Q.** `O=c1scc(-c2ccc(-c3ccccc3)cc2)s1` was tested. Which T/C [1] did it give?
**A.** 109 % of control

**Q.** What about the T/C (dose: 200.0 mg/kg/injection, schedule: Q04DX002 (ip), vehicle: Klucel (hydroxypropylcellulose) (HPC)) of the same compound?
**A.** 95 % of control

**Q.** What about the T/C (dose: 400.0 mg/kg/injection, schedule: Q04DX002 (ip), vehicle: Klucel (hydroxypropylcellulose) (HPC)) of the same compound?
**A.** 109 % of control
